ChEMBL document CHEMBL1147497, “The inhibition of metallo-beta-lactamase by thioxo-cephalosporin derivatives” (Bioorg Med Chem Lett, 2004)

What was measured:
[1] = Binding affinity against nitrocefin
[2] = pKa in water at 30 degree C; format: physicochemical

| Ki [1] [µM] | pKa [2] | Compound |
| --- | --- | --- |
| 720 | – | CC1=C(C(=O)O)N2C(=S)[C@@H](NC(=O)Cc3ccccc3)[C@H]2SC1 |
| – | 10.1 | CC1=C(C(=O)O)N[C@@H](C2NC(=O)C(c3ccccc3)N=C2S)SC1 (some centres not stated) |
